Reference: patent US8663608B2, “Hydroxytyrosol compounds” (University of Cape Town, priority 2009, dated 2014)
Several values for one entry are separate records, joined by “and”; a condition that tells them apart may be missing. Equal entries are not always repeated.

Legend:
[1] = DPPH radical scavenging assay; format: biochemical; conditions: for Radical Scavenging Activity (%): compared to standard ascorbic acid (100%); for Final time of reaction: time to steady state
Method: The DPPH assay is based on the change in absorbance at 515 nm, upon reduction of the DPPH radical, by an antioxidant. The antioxidant activity of a putative antioxidant is measured by monitoring the decrease in absorbance when the colour of the solution fades. In this assay, the reaction between the test antioxidant and DPPH radical is allowed to continue until it reaches a steady state. The amount of the radical quenched when steady state is reached is dependent on the antioxidant capacity and the concentration of the antioxidant. 100 μl (1 mg/3 ml) of the respective sample was added to 3.9 ml DPPH solution (25 mg/L in methanol). The decrease in absorbance at 515 nm was monitored using a Unicam UV-visible spectrophotometer, until the reaction reached steady state.

Bax = assay: Western blot of Bax expression in UVA-irradiated HaCaTs; format: cell-based, human; conditions: for % Bax Expression: relative to control (100%)
Source text: (§1) Apoptosis can take place through the extrinsic pathway or the intrinsic pathway. The extrinsic pathway involves transmembrane receptor-mediated interactions which involve members of the tumour necrosis factor (TNF). The intrinsic pathway is a mitochondrial-initiated event and thus is of interest for this study. The intrinsic pathway can progress in a caspase-dependent or independent way. The caspase-independent route involves a protein called AIF which when released from the mitochondria, translocates directly to the nucleus and induces apoptosis. The alternative caspase-dependent route involves members of the Bcl-2 family of proteins. This family of proteins is responsible for regulating the permeability of the mitochondrial membrane and can be either pro-apoptotic or anti-apoptotic; Bcl-2 is anti-apoptotic while Bax is pro-apoptotic. The cells' sensitivity to apoptotic stimuli depends on the balance of pro-apoptotic (Bax) and anti-apoptotic (Bcl-2) proteins. […] An excess of Bax results in the cells being more susceptible to apoptosis, and an excess of Bcl-2 renders the cells more resistant to apoptosis. To determine the nature of the anti-apoptotic effect mediated by Polymer Compound 57 and hydroxytyrosol due to UVA irradiation, the Bax/Bcl-2 ratio was studied using Western blot analysis. To evaluate the expression of Bcl-2, Bax and AIF, the cells were cultured and treated with varying concentrations between 200 and 1000 μM of Polymer Compound 57 and hydroxytyrosol for 18 hrs, and then irradiated at 22.3 J/cm^2. Protein extraction was conducted and proteins were quantified using the BCA method. […] The purpose of this control is to ensure that it is only the UVA rays that result in the observed effects, and not the heat in the chamber. Alpha tubilin was used as a loading control in each experiment to ensure that the results were quantified correctly. Since the Western blot results are quantified by band size, it is important to ensure that each sample has the same amount of protein when loaded and the loading control helps to determine this. The band obtained when the proteins are probed with the loading control represent the amount of protein in that loaded sample.

Bcl-2 = assay: Western blot of Bcl-2 expression in UVA-irradiated HaCaTs; format: cell-based, human; conditions: for % Bcl-2 Expression: relative to control (100%)
Source text: as §1

AIF = assay: Western blot of AIF expression in UVA-irradiated HaCaTs; format: cell-based, human; conditions: for % AIF Expression: relative to control (100%)
Source text: as §1

[2] = FRAP assay (iron (III) reduction ability); format: biochemical; conditions: 1 ml (1 mg/3 ml) sample
Method: The FRAP assay measures the ability of an antioxidant to reduce a ferroin analog, the Fe complex of tripyridyltriazine, Fe (TPTZ)^3+, to the intensely blue coloured Fe^2+ in an acidic medium. Results are obtained as absorbance increases at 593 nm and can be expressed relative to an antioxidant standard, ascorbic acid in this case.
1 ml (1 mg/3 ml) of the respective sample was added to 2.5 ml of potassium phosphate buffer (pH 7, 500 mM) 2.5 ml potassium ferricyanide was added. This was followed by incubation at 50° C. for 20 min. 10% (v/v) trichloracetic acid was added to stop the reaction. 2.5 ml of water was then added to 2.5 ml of the reaction. Iron chloride (0.5 ml) was added. The reaction was allowed to stand for 30 min after which the absorbance was read at 700 nm.

[3] = test system: low density lipoprotein (LDL); assay: LDL oxidation assay (conjugated diene formation); format: biochemical; conditions: 50 μM test antioxidant; LDL oxidized with 5 μM CuCl2; relative to ascorbic acid
Method: Oxidation of low density lipoprotein (LDL) was performed according to the method developed by Nardini et al (1995). LDL was dialyzed in a 200 fold volume of PBS of pH 7 in the dark for 18 hrs. 100 μg/ml LDL, determined with the Bradford method, was oxidized with 5 μM CuCl2 for 4 hrs at 37° C. in the presence and absence of 50 μM test antioxidant. Conjugated diene formation was measured spectroscopically at 234 nm using a Unicam UV-visible spectrophotometer.
The antioxidant ability of Polymer Compound 57 to inhibit LDL oxidation was assessed by adding it to a reaction mixture containing LDL previously treated with copper to initiate the oxidation. The antioxidant ability of the compound was measured based on the increase in absorbance due to diene conjugation at 234 nm.

HaCaTs = assay: XTT cell viability assay in HaCaTs; format: cell-based, human
Method: To evaluate the toxicity of Polymer Compound 57 an XTT assay was conducted. The assay is based on the ability of viable cells to reduce yellow XTT tetrazolium salts to an orange formazan which is then measured at an absorbance of 450 nm. The HaCaTs were incubated overnight with increasing concentrations of Polymer Compound 57. Cell viability was then evaluated by adding the XTT solution, incubating for 4 hrs at 37° C., and then reading the absorbance at 450 nm.
To further explore the effect of the antioxidants a dose and time response study was carried out to determine the long term effect of Polymer Compound 57.

[4] = test system: UVA-induced H2O2 production in keratinocytes; assay: ROS assay (DHR 123, FACS) in UVA-irradiated keratinocytes; format: cell-based, human
Source text: UVA irradiation of cultured human skin cells results in over-elevated levels of H2O2 and other ROS (reactive oxygen species), with H2O2 being the predominant species. Dihydrorhodamine (DHR 123) can be used to detect H2O2 produced following irradiating the cells with UVA. […] The mean fluorescence (MF), read on a fluorescent activated cell sorter (FACS) machine thus indicates intracellular H2O2 production. To elucidate the effect that Polymer Compound 57 would have on the over-expression of ROS due to irradiation, H2O2 production in keratinocytes was measured. The cells were first treated with the various concentrations of the Polymer Compound 57, irradiated with UVA and then exposed to the dye DHR 123.

## O=C1O[C@H]([C@@H](O)CO)C(O)=C1O [Ascorbic acid, reference compound]
[1]; 0.002M sample
  Radical Scavenging Activity (%): 100%
  Final time of reaction: 4 min

## OCCc1ccc(O)c(O)c1 [Hydroxytyrosol]
Bax; 200 μM
  % Bax Expression: 128%
Bax; 333 μM
  % Bax Expression: 116%
Bax; 1000 μM
  % Bax Expression: 100%
Bcl-2; 200 μM
  % Bcl-2 Expression: 83%
Bcl-2; 333 μM
  % Bcl-2 Expression: 90%
Bcl-2; 1000 μM
  increase in Bcl-2 levels of expression relative to the control: 7%
  % Bcl-2 Expression: 110%
AIF; 200 μM
  % AIF Expression: 91%
AIF; 333 μM
  % AIF Expression: 82%
AIF; 1000 μM
  reduction of AIF levels relative to the control: 15%
  % AIF Expression: 42%

## OCCc1cc(O)c(O)c(-c2cc(CCO)cc(O)c2O)c1 [Polymer Compound 57]
[1]; 0.0004M sample
  Radical Scavenging Activity (%): 86.7%
  Final time of reaction: 7 min
[2]
  antioxidant activity equivalent of ascorbic acid: 363 mg/L
[3]
  effect on absorbance at 234 nm due to diene conjugation: absorbance-decreasing effect
HaCaTs; 3 day period, concentrations non-toxic over 24 hr
  long term toxicity to HaCaTs: non-toxic
HaCaTs; HaCaTs, overnight incubation
  concentrations resulting in marked decreases in cell viability: higher than 500 μM
  concentrations with no negative effect on cell viability: 200 to 500 µM
[4]; 200 μM
  mean fluorescence (ROS level) relative to control of 100%: 87-100%
[4]; 333 μM
  mean fluorescence (ROS level) relative to control of 100%: 85%
Bax; 200 μM
  reduction of Bax levels relative to the control: 75% and 70%
  % Bax Expression: 31%
Bax; 333 μM
  reduction of Bax levels relative to the control: 87.5%
  % Bax Expression: 17%
Bax; 500 μM
  reduction of Bax levels relative to the control: 87.5%
Bax; 1000 μM
  % Bax Expression: 14%
Bax; "lowest concentration" as printed
  decrease of Bax levels relative to the control (100%): 85%
Bcl-2; 200 μM
  % Bcl-2 Expression: 50%
Bcl-2; 333 μM
  % Bcl-2 Expression: 84%
Bcl-2; 500 μM
  increase in Bcl-2 levels of expression relative to the control: 16%
Bcl-2; 1000 μM
  % Bcl-2 Expression: 118%
AIF; 200 μM
  AIF levels reduced to, relative to the control: 28%
  % AIF Expression: 78%
AIF; 333 μM
  AIF levels reduced to, relative to the control: 32%
  % AIF Expression: 74%
AIF; 500 μM
  AIF levels reduced to, relative to the control: 32%
AIF; 1000 μM
  % AIF Expression: 38%
